In paper PMC7156458, “Synthetic biology based construction of biological activity-related library of fungal decalin-containing diterpenoid pyrones” (Nature Communications, 2020):

Target: Aβ42 (Homo sapiens, UniProt P05067)
Experiment: Th-T (thioflavin-T) assay of Aβ42 aggregation
Assay type: biochemical
Details: for Th-T fluorescence, mean of three wells: Aβ42 aggregation time course

Sequence of Aβ42 (P05067 672-713): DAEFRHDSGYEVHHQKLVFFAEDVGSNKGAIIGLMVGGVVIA

For `C=C1CCC2C(C)(CCC=C(C)C)C(O)CCC2(C)C1Cc1c(OC)oc(C)c(C(=O)OC)c1=O` (stereo not drawn) [Compound 14], the “delay of the nucleation phase” value was “no delay”, the “elongation of Aβ42” value was “partly suppressed the elongation of Aβ42” and the “first Th-T assay result” value (Aβ42 (10 μM) ± DPPs (20 μM), room temperature) was “suppressed Aβ42”. The “Th-T fluorescence, mean of three wells” value (reading M117) was 1.655, the “Th-T fluorescence, mean of three wells” value (reading M118) was 1.6572 and the “Th-T fluorescence, mean of three wells” value (reading M119) was 1.678. The “Th-T fluorescence, mean of three wells” value (reading M120) was 1.679, the “Th-T fluorescence, mean of three wells” value (reading M121) was 1.668 and the “Th-T fluorescence, mean of three wells” value (reading M122) was 1.683. The “Th-T fluorescence, mean of three wells” value (reading M123) was 1.681, the “Th-T fluorescence, mean of three wells” value (reading M124) was 1.6777 and the “Th-T fluorescence, mean of three wells” value (reading M125) was 1.687. The “Th-T fluorescence, mean of three wells” value (reading M126) was 1.688, the “Th-T fluorescence, mean of three wells” value (reading M127) was 1.689 and the “Th-T fluorescence, mean of three wells” value (reading M128) was 1.7014. The “Th-T fluorescence, mean of three wells” value (reading M129) was 1.701, the “Th-T fluorescence, mean of three wells” value (reading M130) was 1.6991 and the “Th-T fluorescence, mean of three wells (Fig. 7a)” value (from here on “Th-T fluorescence … (Fig. 7a)”) (column suffix _10, measurement M19) was 1.991. For the same compound, the “Th-T fluorescence … (Fig. 7a)” value (column suffix _10, measurement M20) was 2.087, the “Th-T fluorescence … (Fig. 7a)” value (column suffix _10, measurement M21) was 2.17 and the “Th-T fluorescence … (Fig. 7a)” value (column suffix _10, measurement M22) was 2.206. For the same compound, the “Th-T fluorescence … (Fig. 7a)” value (column suffix _10, measurement M23) was 2.232, the “Th-T fluorescence … (Fig. 7a)” value (column suffix _10, measurement M24) was 2.258 and the “Th-T fluorescence … (Fig. 7a)” value (column suffix _10, measurement M25) was 2.291. The “Th-T fluorescence … (Fig. 7a)” value (column suffix _10, measurement M26) was 2.3072, the “Th-T fluorescence … (Fig. 7a)” value (column suffix _10, measurement M27) was 2.333 and the “Th-T fluorescence … (Fig. 7a)” value (column suffix _10, measurement M28) was 2.3263. For the same compound, the “Th-T fluorescence … (Fig. 7a)” value (column suffix _10, measurement M29) was 2.338, the “Th-T fluorescence … (Fig. 7a)” value (column suffix _10, measurement M30) was 2.363 and the “Th-T assay signal, mean of three wells (Fig. 7a)” value (“Th-T assay signal, mean” below) (column suffix _10, reading M1) was 0.2293. For the same compound, the “Th-T assay signal, mean” value (column suffix _10, reading M2) was 0.2207, the “Th-T assay signal, mean” value (column suffix _10, reading M3) was 0.2333 and the “Th-T assay signal, mean” value (column suffix _10, reading M4) was 0.2495. The “Th-T assay signal, mean” value (column suffix _10, reading M5) was 0.2748, the “Th-T assay signal, mean” value (column suffix _10, reading M6) was 0.3168 and the “Th-T assay signal, mean” value (column suffix _10, reading M7) was 0.3327. For the same compound, the “Th-T assay signal, mean” value (column suffix _10, reading M8) was 0.3584, the “Th-T assay signal, mean” value (column suffix _10, reading M9) was 0.3937 and the “Th-T assay signal, mean” value (column suffix _10, reading M10) was 0.4248. The “Th-T assay signal, mean” value (column suffix _10, reading M11) was 0.4498, the “Th-T assay signal, mean” value (column suffix _10, reading M12) was 0.5064 and the “Th-T assay signal, mean” value (column suffix _10, reading M13) was 0.6552. For the same compound, the “Th-T assay signal, mean” value (column suffix _10, reading M14) was 0.8811, the “Th-T assay signal, mean” value (column suffix _10, reading M15) was 1.163 and the “Th-T assay signal, mean” value (column suffix _10, reading M16) was 1.433. The “Th-T assay signal, mean” value (column suffix _10, reading M17) was 1.668, the “Th-T assay signal, mean” value (column suffix _10, reading M18) was 1.846 and the “Fig. 7a Th-T reading, mean of three wells” value (shortened to “Fig. 7a Th-T reading, mean”) (column suffix _10, reading M85) was 2.79. For the same compound, the “Fig. 7a Th-T reading, mean” value (column suffix _10, reading M86) was 2.788, the “Fig. 7a Th-T reading, mean” value (column suffix _10, reading M87) was 2.811 and the “Fig. 7a Th-T reading, mean” value (column suffix _10, reading M88) was 2.833. The “Fig. 7a Th-T reading, mean” value (column suffix _10, reading M89) was 2.856, the “Fig. 7a Th-T reading, mean” value (column suffix _10, reading M90) was 2.853 and the “Fig. 7a Th-T reading, mean” value (column suffix _10, reading M91) was 2.848. For the same compound, the “Fig. 7a Th-T reading, mean” value (column suffix _10, reading M92) was 2.836, the “Fig. 7a Th-T reading, mean” value (column suffix _10, reading M93) was 2.868 and the “Fig. 7a Th-T reading, mean” value (column suffix _10, reading M94) was 2.853. For the same compound, the “Fig. 7a Th-T reading, mean” value (column suffix _10, reading M95) was 2.8555, the “Fig. 7a Th-T reading, mean” value (column suffix _10, reading M96) was 2.819 and the “Fig. 7a Th-T reading, mean” value (column suffix _10, reading M97) was 2.823. The “Fig. 7a Th-T reading, mean” value (column suffix _10, reading M98) was 2.843, the “Fig. 7a Th-T reading, mean” value (column suffix _10, reading M99) was 2.862 and the “Fig. 7a Th-T reading, mean” value (column suffix _10, reading M100) was 2.849. For the same compound, the “Fig. 7a Th-T reading, mean” value (column suffix _10, reading M101) was 2.83, the “Fig. 7a Th-T reading, mean” value (column suffix _10, reading M102) was 2.84 and the “Fig. 7a Th-T reading, mean” value (column suffix _10, reading M103) was 2.843. For the same compound, the “Fig. 7a Th-T reading, mean” value (column suffix _10, reading M104) was 2.878, the “Fig. 7a Th-T reading, mean” value (column suffix _10, reading M105) was 2.894 and the “Fig. 7a Th-T reading, mean” value (column suffix _10, reading M106) was 2.859. The “Th-T fluorescence … (Fig. 7a)” value (column suffix _20, measurement M19) was 1.051, the “Th-T fluorescence … (Fig. 7a)” value (column suffix _20, measurement M20) was 1.16 and the “Th-T fluorescence … (Fig. 7a)” value (column suffix _20, measurement M21) was 1.235. For the same compound, the “Th-T fluorescence … (Fig. 7a)” value (column suffix _20, measurement M22) was 1.279, the “Th-T fluorescence … (Fig. 7a)” value (column suffix _20, measurement M23) was 1.352 and the “Th-T fluorescence … (Fig. 7a)” value (column suffix _20, measurement M24) was 1.3992. The “Th-T fluorescence … (Fig. 7a)” value (column suffix _20, measurement M25) was 1.478, the “Th-T fluorescence … (Fig. 7a)” value (column suffix _20, measurement M26) was 1.556 and the “Th-T fluorescence … (Fig. 7a)” value (column suffix _20, measurement M27) was 1.595. For the same compound, the “Th-T fluorescence … (Fig. 7a)” value (column suffix _20, measurement M28) was 1.672, the “Th-T fluorescence … (Fig. 7a)” value (column suffix _20, measurement M29) was 1.711 and the “Th-T assay signal, mean” value (column suffix _20, reading M1) was 0.305. For the same compound, the “Th-T assay signal, mean” value (column suffix _20, reading M2) was 0.2567, the “Th-T assay signal, mean” value (column suffix _20, reading M3) was 0.2803 and the “Th-T assay signal, mean” value (column suffix _20, reading M4) was 0.2741. For the same compound, the “Th-T assay signal, mean” value (column suffix _20, reading M5) was 0.2931, the “Th-T assay signal, mean” value (column suffix _20, reading M6) was 0.3005 and the “Th-T assay signal, mean” value (column suffix _20, reading M7) was 0.3085. The “Th-T assay signal, mean” value (column suffix _20, reading M8) was 0.3015, the “Th-T assay signal, mean” value (column suffix _20, reading M9) was 0.3254 and the “Th-T assay signal, mean” value (column suffix _20, reading M10) was 0.3505. The “Th-T assay signal, mean” value (column suffix _20, reading M11) was 0.3712, the “Th-T assay signal, mean” value (column suffix _20, reading M12) was 0.4273 and the “Th-T assay signal, mean” value (column suffix _20, reading M13) was 0.4951. For the same compound, the “Th-T assay signal, mean” value (column suffix _20, reading M14) was 0.5807, the “Th-T assay signal, mean” value (column suffix _20, reading M15) was 0.6574 and the “Th-T assay signal, mean” value (column suffix _20, reading M16) was 0.7497. For the same compound, the “Th-T assay signal, mean” value (column suffix _20, reading M17) was 0.8453, the “Th-T assay signal, mean” value (column suffix _20, reading M18) was 0.9743 and the “Fig. 7a Th-T reading, mean” value (column suffix _20, reading M85) was 1.842. For the same compound, the “Fig. 7a Th-T reading, mean” value (column suffix _20, reading M86) was 1.882, the “Fig. 7a Th-T reading, mean” value (column suffix _20, reading M87) was 1.842 and the “Fig. 7a Th-T reading, mean” value (column suffix _20, reading M88) was 1.862. For the same compound, the “Fig. 7a Th-T reading, mean” value (column suffix _20, reading M89) was 1.848, the “Fig. 7a Th-T reading, mean” value (column suffix _20, reading M90) was 1.855 and the “Fig. 7a Th-T reading, mean” value (column suffix _20, reading M91) was 1.818. The “Fig. 7a Th-T reading, mean” value (column suffix _20, reading M92) was 1.795, the “Fig. 7a Th-T reading, mean” value (column suffix _20, reading M93) was 1.7999 and the “Fig. 7a Th-T reading, mean” value (column suffix _20, reading M94) was 1.805. The “Fig. 7a Th-T reading, mean” value (column suffix _20, reading M95) was 1.783, the “Fig. 7a Th-T reading, mean” value (column suffix _20, reading M96) was 1.793 and the “Fig. 7a Th-T reading, mean” value (column suffix _20, reading M97) was 1.78. The “Fig. 7a Th-T reading, mean” value (column suffix _20, reading M98) was 1.799, the “Fig. 7a Th-T reading, mean” value (column suffix _20, reading M99) was 1.789 and the “Fig. 7a Th-T reading, mean” value (column suffix _20, reading M100) was 1.781.
